{"source": "patent US9320753B2", "about": "“Organ arrest, protection and preservation” (priority 1999, dated 2016)", "key": {"[1]": {"conditions": "cited from earlier work"}, "[2]": {"system": "isolated working rat heart", "test": "Lignocaine alone in the isolated working rat heart", "conditions": "lignocaine alone at 0.5, 1.0 and 1.5 mM", "description": "Lignocaine is a local anaesthetic which blocks sodium fast channels and has antiarrhythmatic properties by reducing the magnitude of inward sodium current. The accompanying shortening of the action potential is thought to directly reduce calcium entry into the cell via Ca^2+ selective channels and Na^+/Ca^2+ exchange. Recent reports also implicate lignocaine with the scavenging of free radicals such as hydroxyl and singlet oxygen in the heart during reperfusion."}, "[3]": {"conditions": "requires a carrier (DMSO); cited from earlier work"}, "heart": {"system": "heart", "test": "Arrest with pinacidil plus local anaesthetics (Example 7)", "conditions": "arrest solutions with local anaesthetics", "protocol": "Arrest solutions were made with pinacidil dissolved in 0.05% dimethysulfoxide (DMSO) (200 μM) the local anaesthetics prilocalne, procaine, mepivacaine and lignocaine in Krebs-Henseleit solution."}}}
{"smiles": "Nc1ncnc2c1ncn2[C@@H]1O[C@H](CO)[C@@H](O)[C@H]1O", "note": "[adenosine]", "values": [{"measurement": "half life in the blood", "setting": "[1]", "value": "about 10 seconds"}]}
{"smiles": "CCN(CC)CC(=O)Nc1c(C)cccc1C", "note": "[lignocaine]", "values": [{"measurement": "functional recoveries", "setting": "[2]", "value": "highly variable functional recoveries"}]}
{"smiles": "CC(N/C(=N\\C#N)Nc1ccncc1)C(C)(C)C", "note": "(stereo not shown) [pinacidil]", "values": [{"measurement": "solubility in aqueous solutions", "setting": "[3]", "value": "low solubility in aqueous solutions"}, {"measurement": "effectiveness compared with adenosine", "setting": "heart", "value": "not as effective as adenosine"}]}
